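Dose response: 5 concentrations. Exposure: 48 h. Format: 96-well plates. Endpoint: linear interpolation; highest concentration if not reached. GI50: concentration for 50% inhibition of growth.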 Activity calls are given as the source filed them. No stated cut-off is given here; in the data, active = GI50 up to about 1.1 µM and inactive = higher.
Assays:
Experiment in all cases: NCI anticancer screen, dose series, 48 h
[1] = tested on: 786-0
[2] = tested on: A549
[3] = tested on: BT-549
[4] = tested on: CAKI-1
[5] = tested on: HL-60
[6] = tested on: HOP-62
[7] = tested on: HOP-92
[8] = tested on: K562
[9] = tested on: Malme-3M
[10] = tested on: NCI-H460
[11] = tested on: NCI-H522
[12] = tested on: RXF 393
[13] = tested on: SF-295
[14] = tested on: SK-MEL-2
[15] = tested on: SK-OV-3
[16] = tested on: SNB-19
[17] = tested on: UACC-62
[18] = tested on: UO-31
[19] = tested on: SK-MEL-5

SMILES | GI50 [1] | GI50 [2] | GI50 [3] | GI50 [4] | GI50 [5] | GI50 [6] | GI50 [7] | GI50 [8] | GI50 [9] | GI50 [10] | GI50 [11] | GI50 [12] | GI50 [13] | GI50 [14] | GI50 [15] | GI50 [16] | GI50 [17] | GI50 [18] | GI50 [19]
COc1cccc2c3cccc(OC)c3c3[nH]cnc3c12 | 1.58 µM (inactive) | 1.57 µM (inactive) | 16.1 µM (inactive) | 16.9 µM (inactive) | 0.785 µM (active) | 16.4 µM (inactive) | 6.04 µM (inactive) | 2.08 µM (inactive) | 3.88 µM (inactive) | 1.72 µM (inactive) | 1.55 µM (inactive) | 1.78 µM (inactive) | 4.78 µM (inactive) | 20.1 µM (inactive) | 18.7 µM (inactive) | 5.01 µM (inactive) | 16.7 µM (inactive) | 1.66 µM (inactive) | 
O=C1C(Cl)=C(N[C@@H](Cc2ccccc2)C(=O)OCc2ccccc2)C(=O)c2c(O)ccc(O)c21 | 3.11 µM (inactive) | 3.47 µM (inactive) | > 10 µM (inactive) | > 10 µM (inactive) | 2.07 µM (inactive) | 3.52 µM (inactive) | 6.3 µM (inactive) |  | 5.35 µM (inactive) | 4.59 µM (inactive) | 6.41 µM (inactive) | 4.92 µM (inactive) | 5.66 µM (inactive) | 6.7 µM (inactive) | > 10 µM (inactive) | 5.81 µM (inactive) | 2.96 µM (inactive) |  | 3.24 µM (inactive)
Nc1ncn2c(n1)nc1ccccc12 | > 100 µM (inactive) | > 100 µM (inactive) | > 100 µM (inactive) | > 100 µM (inactive) | > 100 µM (inactive) |  | 37.2 µM (inactive) | > 100 µM (inactive) | > 100 µM (inactive) | > 100 µM (inactive) | > 100 µM (inactive) | 18.6 µM (inactive) | > 100 µM (inactive) | > 100 µM (inactive) | > 100 µM (inactive) | > 100 µM (inactive) | > 100 µM (inactive) | > 100 µM (inactive) | > 100 µM (inactive)
CCOC(=O)/C(=C\NC[C@@H](C)O)c1nc2ccccc2[nH]1 | > 100 µM (inactive) | 62.4 µM (inactive) | > 100 µM (inactive) | > 100 µM (inactive) | 20.4 µM (inactive) | > 100 µM (inactive) | 72.9 µM (inactive) |  | > 100 µM (inactive) | 33.3 µM (inactive) | 40.3 µM (inactive) | > 100 µM (inactive) | 61.1 µM (inactive) |  | > 100 µM (inactive) | > 100 µM (inactive) | 40.9 µM (inactive) | 0.33 µM (active) | 29.5 µM (inactive)
O=c1[nH]c(-c2ccccc2)nc2c1sc1nc3ccccc3n12 | > 100 µM (inactive) | > 100 µM (inactive) | > 61 µM (inactive) | > 100 µM (inactive) | > 100 µM (inactive) |  | > 100 µM (inactive) | > 100 µM (inactive) | > 100 µM (inactive) | > 100 µM (inactive) | > 100 µM (inactive) | > 100 µM (inactive) | > 100 µM (inactive) | > 100 µM (inactive) | > 100 µM (inactive) | 98.4 µM (inactive) | > 100 µM (inactive) | > 100 µM (inactive) | > 100 µM (inactive)
Cn1c(N)c(Cc2ccc(Cl)cc2)c(=O)[nH]c1=O | > 100 µM (inactive) | > 100 µM (inactive) | > 100 µM (inactive) | > 100 µM (inactive) | > 100 µM (inactive) | > 100 µM (inactive) | 89.7 µM (inactive) | > 100 µM (inactive) | > 100 µM (inactive) |  | > 100 µM (inactive) | > 100 µM (inactive) | > 100 µM (inactive) | > 100 µM (inactive) | > 100 µM (inactive) | > 100 µM (inactive) | > 100 µM (inactive) | > 100 µM (inactive) | > 100 µM (inactive)

From ChEMBL document CHEMBL1201862, “PubChem BioAssay data set” (2004)
